The target of assay [1] is T1, human JAK3 (Homo sapiens, UniProt P52333).
T1 construct: KL-2 EBV-transformed human lymphoblastoid B cells (native JAK3 kinase assays); endogenous in cells; host or cells: KL-2 EBV-transformed human lymphoblastoid B cell line
T1 sequence (P52333 1-1124): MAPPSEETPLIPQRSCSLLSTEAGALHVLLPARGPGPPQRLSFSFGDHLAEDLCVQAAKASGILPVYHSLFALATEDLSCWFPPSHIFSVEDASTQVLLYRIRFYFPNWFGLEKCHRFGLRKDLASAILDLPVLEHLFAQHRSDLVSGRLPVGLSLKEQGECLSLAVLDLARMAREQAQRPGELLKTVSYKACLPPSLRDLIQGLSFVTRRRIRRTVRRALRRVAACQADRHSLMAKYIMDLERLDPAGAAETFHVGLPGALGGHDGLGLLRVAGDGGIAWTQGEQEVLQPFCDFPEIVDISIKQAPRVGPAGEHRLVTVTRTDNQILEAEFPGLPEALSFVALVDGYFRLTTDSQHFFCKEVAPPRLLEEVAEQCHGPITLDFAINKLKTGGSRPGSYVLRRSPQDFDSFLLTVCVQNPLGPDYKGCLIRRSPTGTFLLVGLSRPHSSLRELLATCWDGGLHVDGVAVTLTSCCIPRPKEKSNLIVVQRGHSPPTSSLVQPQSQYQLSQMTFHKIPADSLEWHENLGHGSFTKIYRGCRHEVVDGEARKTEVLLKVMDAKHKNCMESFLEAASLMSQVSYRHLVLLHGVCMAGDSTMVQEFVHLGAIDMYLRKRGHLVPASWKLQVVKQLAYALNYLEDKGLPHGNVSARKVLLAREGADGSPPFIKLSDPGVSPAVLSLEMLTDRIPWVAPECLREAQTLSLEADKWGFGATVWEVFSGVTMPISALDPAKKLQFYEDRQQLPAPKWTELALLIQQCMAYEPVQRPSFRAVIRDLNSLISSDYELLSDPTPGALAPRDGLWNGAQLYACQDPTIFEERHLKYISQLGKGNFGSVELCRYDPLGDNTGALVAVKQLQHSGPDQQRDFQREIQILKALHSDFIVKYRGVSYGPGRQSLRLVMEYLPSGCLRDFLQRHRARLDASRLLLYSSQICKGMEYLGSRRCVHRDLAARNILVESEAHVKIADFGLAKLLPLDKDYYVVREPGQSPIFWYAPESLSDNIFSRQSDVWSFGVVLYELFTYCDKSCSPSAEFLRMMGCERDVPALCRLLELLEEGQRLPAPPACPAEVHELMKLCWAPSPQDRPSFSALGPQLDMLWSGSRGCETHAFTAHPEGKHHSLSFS
In words: JAK3 kinase inhibition (Table 1 IC50, immune complex kinase assay). It is filed as biochemical. The note with it: for IC50: Table 1, measured inhibition values for JAK3 kinase. The protocol: Immune Complex Kinase Assays.
(§1) KL-2 EBV-transformed human lymphoblastoid B cells (native JAK3 kinase assays) or insect ovary cells (recombinant JAK3 kinase assays) were lysed with NP-40 lysis buffer (50 mM Tris, pH 8, 150 mM NaCl, 5 mM EDTA, 1% NP-40, 100 μM sodium orthovanadate, 100 μM sodium molybdate, 8 μg/ml aprotinin, 5 μg/ml leupeptin, and 500 μM PMSF) and centrifuged 10 minutes at 13000×g to remove insoluble material. Samples were immunoprecipitated with antisera prepared against JAK3. The antisera were diluted and immune complexes collected by incubation with 15 μl protein A Sepharose. After 4 washes with NP-40 lysis buffer, the protein A Sepharose beads were washed once in kinase buffer (20 mM MOPS, pH 7.0, 10 mM MgCl2) and resuspended in the same buffer. Reactions were initiated by the addition of 25 μCi γ[^32P] ATP (5000 Ci/mMole) and unlabeled ATP to a final concentration of 5 μM. Reactions were terminated by boiling for 4 min in SDS sample buffer. Samples were run on 9.5% SDS polyacrylamide gels and labeled proteins will be detected by autoradiography. Following electrophoresis, kinase gels were dried onto Whatman 3M filter paper and subjected to phosphoimaging on a Molecular Imager (Bio-Rad, Hercules, Calif.) as well as autoradiography on film. For each drug concentration, a kinase activity index (KA) was determined by comparing the kinase activity in phosphorimager units (PIU) to that of the baseline sample. In some experiments, cold kinase assays were performed, as described (Uckun et. al., 1998, Clin. Cancer Res., 4:901-912).

Assay [2] has as its target T1, human JAK3. In words: Immune complex kinase assay, JAK3 immunoprecipitated from KL2 EBV-transformed lymphoblastoid B cell line. The note with it: JAK3 immunoprecipitated from KL2 cells. It is filed as biochemical. As to the method: as §1, with “Following electrophoresis, kinase gels were dried onto Whatman 3M filter paper and subjected to phosphoimaging on a Molecular Imager (Bio-Rad, Hercules, Calif.) as well as autoradiography on film.” left out, “In some experiments, cold kinase assays were performed, as described (Uckun et. al., 1998, Clin. Cancer Res., 4:901-912).” left out

Assay [3] relates to RBL-2H3 mast cells. Nature of the assay: IgE/antigen-induced degranulation and mediator release. It is filed as cell-based, rat. The note with it: 1 h preincubation, DNP-BSA challenge; at ≧30 μM. The source says:
Vehicle treated control RBL-2H3 cells released 45.1±3.1% of their hexosaminidase contents after DNP-BSA challenge. […] Vehicle treated control cells released 11.3±1.3 pg LTC4, and 160±33.0 pg TNFα/10^6 mast cells. The results on LTC4 and TNFα release are expressed as percent of maximum control release from vehicle treated control mast cells. The data points represent the mean±SEM values obtained from 3-6 independent experiments. […] *P<0.05 and **P<0.0001 compared to control as determined by Student's t test.
Supernatants were removed and saved.

The subject of assay [4] is RBL-2H3 mast cells. Nature of the assay: IgE/antigen-induced activation (cell spreading, microtubule organization) by confocal microscopy. It counts as cell-based, rat. The note with it: 30 μM, two hour incubation. The protocol: RBL-2H3 cells were cultured overnight on 22×22 mm coverslips at a cell density of 0.01×10^6/ml with […] DNP-IgE. Sensitized RBL-2H3 cells were then treated with 30 μM WHI-P131, vehicle, or control compounds WHI-P258 and WHI-P112 prior to challenge with DNP-BSA, as described in the legend of FIG. 4. After stimulation with DNP-BSA for 1 hour, cells were fixed in cold methanol for 15 minutes followed by permeabilization with PBS containing 0.1% Triton X-100. […] After washing 3 times with PBS-0.1% Triton X-100, cells were incubated with fluorescein labeled secondary antibody (Zymed, San Francisco, Calif.) for another 40 minutes. Cells were washed three times to remove unbound antibody. DNA labeling was performed by incubation of coverslips with toto-3 (Molecular Probes, Eugene, Oreg.) for 10 minutes. Excessive dye was washed with PBS-0.1% Triton X-100. Cells were visualized under MRC 1024 Laser Scanning Microscope after mounting with Vectashield (Vector laboratories, Inc, Burlingame, Calif.), as previously reported.
Confocol Microscopy: Staining of mast cells with primary and secondary antibodies followed by confocal laser scanning microscopy was performed as previously described in detail (Uckun et. al., 1998, Clin. Cancer Res., 4:901-912). After staining with appropriate primary and secondary antibodies, cells were washed three times to remove unbound antibody. DNA labeling was performed by incubation of coverslips with toto-3 (Molecular Probes, Eugene, Oreg.) for 10 min. Excessive dye was washed with PBS-0.1% triton X-100. Cells were visualized under MRC 1024 Laser Scanning Microscope after mounting with Vectashield (Vector laboratories, Inc, Burlingame, Calif.).
In a systematic effort aimed at elucidating the biologic consequences of JAK3 inhibition in mast cells, we first sought to determine if the JAK3 inhibitor WHI-P131 could prevent the IgE receptor/FcεRI-mediated activation of mast cells. Since the IgE receptor/FcεRI-mediated activation of mast cells results in a distinct morphologic transformation with marked cell spreading due to membrane ruffling, microtubule formation and actin polymerization (Apgar, 1997), we evaluated the effects of WHI-P131 on the activation-associated transformation of shape and surface topography of RBL-2H3 mast cells using confocal laser scanning microscopy (Ghosh et. al., 1998).

For assay [5], the system named is JAK3-dependent STAT activation. In words: EMSA, IL-2 triggered STAT activation in 32Dc11/IL2Rβ cells. It is filed as cell-based. The note with it: 10 μg/ml, 32Dc11/IL2Rβ cells. As to the method: Electrophoretic Mobility Shift Assays (EMSAs). EMSAs were performed to examine the effects of dimethoxyquinazoline compounds on cytokine-induced STAT activation (Goodman et. al., 1998). […] Cells were collected after 15 minutes and resuspended in lysis buffer (100 mM Tris-HCl pH 8.0, 0.5% NP-40, 10% glycerol, […], 0.1 mM NaVO3, 50 mM NaF, 150 mM NaCl, 1 mM DTT, 3 μg/ml Aprotinin, 2 μg/ml Pepstatin A, 1 μg/ml Leupeptin and 0.2 mM PMSF). Lysates were precleared by centrifugation for 30 min. Cell extracts (approximately 10 μg) were incubated with 2 μg of poly(dI-dC) for 30 minutes, followed by a 30 minutes incubation with 1ng of poly. nucleotide kinase-^32P labeled double stranded DNA oligonucleotide representing the IRF-1 STAT DNA binding sequence (Santa Cruz Biotechnology, Santa Cruz, Calif.). Samples were resolved by non-denaturing PAGE and visualized by autoradiography.

A further assay deals with mast cell. The following applies: cited from earlier work.

Read-outs that look alike come from different tables or passages of the source. A value given as a limit tells only on which side of the number the result lay.

On to `COc1cc2ncnc(Nc3cccc(Br)c3)c2cc1OC` [WHI-P79, 4-(3′-Bromophenyl)-amino-6,7-dimethoxyquinazoline], for which the IC50 (as a rule, the point on the concentration scale where inhibition reaches its midpoint) against human JAK3 [1] is over 300 µM.

`COc1cc2ncnc(Nc3cc(Br)c(O)c(Br)c3)c2cc1OC` [WHI-P97, 4-(3′,5′-Dibromo-4′-hydroxylphenyl)-amino-6,7-dimethoxyquinazoline]: the IC50 on human JAK3 [1] and against human JAK3 [2] was 11 µM in each case.

Turning to `COc1cc2ncnc(Nc3ccc(C)c(Br)c3)c2cc1OC` [WHI-P111, 4-(3′-Bromo-4-methylphenyl)-amino-6,7-dimethoxyquinazoline], at human JAK3 [1], the “JAK3 inhibitory activity (in words)” value is “do not inhibit JAK3” and the half-maximal inhibitory concentration (IC50) was over 300 µM. For the same compound, in the assay on RBL-2H3 mast cells [3], the LTC4 release result is listed as “did not inhibit”, the TNFα release entry is “did not inhibit” and the “β-hexosaminidase release (degranulation)” value is listed as “did not inhibit”.

`COc1cc2ncnc(Nc3cc(Br)ccc3Br)c2cc1OC` [WHI-P112, 4-(2′,5′-Dibromophenyl)-amino-6,7-dimethoxyquinazoline]: at human JAK3 [1], the “JAK3 inhibitory activity (in words)” value is on record as “do not inhibit JAK3” and the IC50 was over 200 µM. The “JAK3 inhibitory activity (in words)” value on human JAK3 [1] (listed as WHI-112) was “does not inhibit JAK3”. In the assay with RBL-2H3 mast cells [4], the “IgE/antigen-induced mast cell activation (spreading and microtubule organization)” value is given as “unable to produce any significant effects”. Moreover, in the assay with RBL-2H3 mast cells [3], the LTC4 release entry is recorded as “did not inhibit”, the TNFα release entry is listed as “did not inhibit” and the “β-hexosaminidase release (degranulation)” value was “did not inhibit”.

Take `COc1cc2ncnc(Nc3ccccc3O)c2cc1OC` [WHI-P132, 4-(2′-Hydroxylphenyl)-amino-6,7-dimethoxyquinazoline]: on human JAK3 [1], the “JAK3 inhibitory activity (in words)” value is “inactive” and the 50% inhibitory concentration (IC50) was over 300 µM. The “JAK3-dependent STAT activation after stimulation with IL-2” value in assay [5] was “not”.

For the compound `COc1cc2ncnc(Nc3cccc(O)c3)c2cc1OC` [WHI-P180, 4-(3′-hydroxyphenyl)-amino-6,7-dimethoxyquinazoline], the half-maximal inhibitory concentration (IC50) on human JAK3 [1] was 3 µM. In the assay on mast cell (IgE/antigen induced mast cell responses), the “potency relative to WHI-P258” value was “much more potent”. For the same compound, in the assay with mast cell (IgE/antigen induced), the “mast cell degranulation (β-hexasaminidase release)” value is listed as “effectively inhibited” and the “secretion of newly synthesized mediators (LTC4 release)” value is listed as “effectively inhibited”.

As for `COc1cc2ncnc(Nc3ccccc3)c2cc1OC` [WHI-P258, 4-(Phenyl)-amino-6,7-dimethoxyquinazoline], on human JAK3 [1], the “JAK3 inhibitory activity (in words)” value was “lacks JAK3 inhibitory activity” and the half-inhibitory concentration (IC50) was over 300 µM.

Values taken from patent US6452005B1, “JAK-3 inhibitors for treating allergic disorders” (Parker Hughes Institute, priority 1999, dated 2002).
